Data from publication PMC10272563, “Novel gold(III)-dithiocarbamate complex targeting bacterial thioredoxin reductase: antimicrobial activity, synergy, toxicity, and mechanistic insights” (Frontiers in Microbiology, 2023).
pIC50: −log10 of the molar value. Where two headings read alike, the source gives them in different places.

What was measured:
[1] = target: T1, E. coli TrxR (thioredoxin reductase) (Escherichia coli, UniProt P0A9P4); set-up: gene trxB
[2] = target: T1, E. coli TrxR (thioredoxin reductase); experiment: Trx-coupled DTNB reduction assay, purified recombinant enzyme; activity recovered after desalting; format: biochemical; set-up: gene trxB; GenBank PSY25180.1, residues 1–321, His6-SUMO tag removed

T1 sequence (P0A9P4 whole entry, the tested form may be a part): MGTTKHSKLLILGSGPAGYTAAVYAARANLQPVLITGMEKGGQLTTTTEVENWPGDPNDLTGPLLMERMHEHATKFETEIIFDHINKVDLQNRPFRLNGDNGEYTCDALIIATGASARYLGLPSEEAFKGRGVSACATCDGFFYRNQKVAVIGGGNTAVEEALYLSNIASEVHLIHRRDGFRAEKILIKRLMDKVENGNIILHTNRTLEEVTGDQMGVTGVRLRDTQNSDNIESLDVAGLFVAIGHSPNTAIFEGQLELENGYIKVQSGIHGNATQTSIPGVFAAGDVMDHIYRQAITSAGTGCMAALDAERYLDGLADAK
T1 sequence (P0AA25 whole entry, further chain, the tested form may be a part): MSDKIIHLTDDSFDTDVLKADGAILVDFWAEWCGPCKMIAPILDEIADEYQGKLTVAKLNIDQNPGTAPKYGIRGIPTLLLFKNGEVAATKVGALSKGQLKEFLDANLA

| Compound | pIC50 [1] | pIC50 [2] |
| --- | --- | --- |
| CC[P](CC)(CC)=[Au][S][C@@H]1O[C@H](COC(C)=O)[C@@H](OC(C)=O)[C@H](OC(C)=O)[C@H]1OC(C)=O [auranofin] | 5.95 | – |
| [Au(dppta)(mrdtc)][PF6] [compound 2] | – | 5.72 |
| [Au(dppta)Cl2] [compound 1] | – | 5.88 |
